{"source": "ChEMBL document CHEMBL5375989", "about": "“Pioneering 4,11-Dioxo-4,11-dihydro-1H-anthra[2,3-d]imidazol-3-ium Compounds as Promising Survivin Inhibitors by Targeting ILF3/NF110 for Cancer Therapy” (J Med Chem, 2023)", "key": {"A549 [1]": {"tested_on": "A549", "description": "(§2) Antiproliferative activity against human A549 cells assessed as inhibition of cell growth measured after 48 hrs by MTT assay"}, "L929": {"tested_on": "L929", "assay": "(§1) Antiproliferative activity against mouse L929 cells assessed as inhibition of cell growth measured after 48 hrs by MTT assay", "type": "toxicity, cell-based", "details": "l929"}, "[2]": {"assay": "Selectivity index, ratio of IC50 for mouse L929 cells to IC50 for human A549 cells", "type": "toxicity", "details": "for selectivity ratio: L929 cells and A549 cells, read-out: Ratio IC50"}, "143B": {"tested_on": "143B", "assay": "Antiproliferative activity against human 143B cells assessed as inhibition of cell growth measured after 48 hrs by MTT assay", "type": "functional, cell-based", "details": "Homo sapiens, 143B, 48 h"}, "A549 [3]": {"tested_on": "A549", "assay": "Induction of apoptosis in human A549 cells assessed as late apoptotic cells at 0.25 uM measured after 48 hrs by annexin V and PI staining based flow cytometry analysis (reference value: 4.70%)", "type": "functional"}, "MCF7": {"tested_on": "MCF7", "assay": "Antiproliferative activity against human MCF7 cells assessed as inhibition of cell growth measured after 48 hrs by MTT assay", "type": "functional, cell-based", "details": "MCF7, 48 h"}, "A549 [4]": {"tested_on": "A549", "assay": "Induction of apoptosis in human A549 cells assessed as necrotic cells at 0.04 uM measured after 48 hrs by annexin V and PI staining based flow cytometry analysis (reference value: 1.47%)", "type": "functional"}, "[5]": {"assay": "Antiproliferative activity against mouse NIH3T3 cells assessed as inhibition of cell growth measured after 48 hrs by MTT assay", "type": "toxicity, cell-based", "details": "mouse, NIH3T3 cells"}, "ASPC1": {"tested_on": "ASPC1", "assay": "Antiproliferative activity against human ASPC1 cells assessed as inhibition of cell growth measured after 48 hrs by MTT assay", "type": "functional, cell-based", "details": "aspc1"}, "BXPC-3": {"tested_on": "BXPC-3", "assay": "Antiproliferative activity against human BXPC-3 cells assessed as inhibition of cell growth measured after 48 hrs by MTT assay", "type": "functional, cell-based", "details": "Homo sapiens, BXPC-3, 48 h"}, "A549 [6]": {"tested_on": "A549", "assay": "Induction of apoptosis in human A549 cells assessed as viable cells at 0.25 uM measured after 48 hrs by annexin V and PI staining based flow cytometry analysis (reference value: 93.3%)", "type": "functional"}, "HeLa": {"tested_on": "HeLa", "assay": "Antiproliferative activity against human HeLa cells assessed as inhibition of cell growth measured after 48 hrs by MTT assay", "type": "functional, cell-based", "details": "Homo sapiens, HeLa, 48 h"}, "[7]": {"assay": "as §1", "type": "toxicity, cell-based", "details": "mouse, L929 cells"}, "A549 [8]": {"tested_on": "A549", "assay": "cells", "details": "Homo sapiens, A549, 48 h", "description": "as §2"}, "A549 [9]": {"tested_on": "A549", "assay": "Induction of apoptosis in human A549 cells assessed as necrotic cells at 0.1 uM measured after 48 hrs by annexin V and PI staining based flow cytometry analysis (reference value: 1.47%)", "type": "functional"}, "A549 [10]": {"tested_on": "A549", "assay": "Induction of apoptosis in human A549 cells assessed as late apoptotic cells at 0.1 uM measured after 48 hrs by annexin V and PI staining based flow cytometry analysis (reference value: 4.70%)", "type": "functional"}, "PANC-1": {"tested_on": "PANC-1", "assay": "Antiproliferative activity against human PANC-1 cells assessed as inhibition of cell growth measured after 48 hrs by MTT assay", "type": "functional, cell-based", "details": "Homo sapiens, PANC-1, 48 h"}, "HepG2": {"tested_on": "HepG2", "assay": "Antiproliferative activity against human HepG2 cells assessed as inhibition of cell growth measured after 48 hrs by MTT assay", "type": "functional, cell-based", "details": "Homo sapiens, HepG2, 48 h"}, "[11]": {"assay": "Antiproliferative activity against human HUVEC cells assessed as inhibition of cell growth measured after 48 hrs by MTT assay", "type": "toxicity, cell-based", "details": "human, HUVEC cells"}, "[12]": {"assay": "Antiproliferative activity against human MRC5 cells assessed as inhibition of cell growth measured after 48 hrs by MTT assay", "type": "toxicity, cell-based", "details": "human, MRC5 cells"}, "A549 [13]": {"tested_on": "A549", "assay": "Induction of apoptosis in human A549 cells assessed as necrotic cells at 0.25 uM measured after 48 hrs by annexin V and PI staining based flow cytometry analysis (reference value: 1.47%)", "type": "functional"}, "A549 [14]": {"tested_on": "A549", "assay": "Induction of apoptosis in human A549 cells assessed as late apoptotic cells at 0.04 uM measured after 48 hrs by annexin V and PI staining based flow cytometry analysis (reference value: 4.70%)", "type": "functional"}, "A549 [15]": {"tested_on": "A549", "assay": "Induction of apoptosis in human A549 cells assessed as early apoptotic cells at 0.25 uM measured after 48 hrs by annexin V and PI staining based flow cytometry analysis (reference value: 0.71%)", "type": "functional"}, "A549 [16]": {"tested_on": "A549", "assay": "Induction of apoptosis in human A549 cells assessed as early apoptotic cells at 0.04 uM measured after 48 hrs by annexin V and PI staining based flow cytometry analysis (reference value: 0.71%)", "type": "functional"}, "A549 [17]": {"tested_on": "A549", "assay": "Induction of apoptosis in human A549 cells assessed as viable cells at 0.04 uM measured after 48 hrs by annexin V and PI staining based flow cytometry analysis (reference value: 93.3%)", "type": "functional"}, "NCI-H460": {"tested_on": "NCI-H460", "assay": "Antiproliferative activity against human NCI-H460 cells assessed as inhibition of cell growth measured after 48 hrs by MTT assay", "type": "functional, cell-based", "details": "Homo sapiens, NCI-H460, 48 h"}, "NCI-H1299": {"tested_on": "NCI-H1299", "assay": "Antiproliferative activity against human NCI-H1299 cells assessed as inhibition of cell growth measured after 48 hrs by MTT assay", "type": "functional, cell-based", "details": "Homo sapiens, NCI-H1299, 48 h"}, "A549 [18]": {"tested_on": "A549", "assay": "Induction of apoptosis in human A549 cells assessed as viable cells at 0.1 uM measured after 48 hrs by annexin V and PI staining based flow cytometry analysis (reference value: 93.3%)", "type": "functional"}, "A549 [19]": {"tested_on": "A549", "assay": "Induction of apoptosis in human A549 cells assessed as early apoptotic cells at 0.1 uM measured after 48 hrs by annexin V and PI staining based flow cytometry analysis (reference value: 0.71%)", "type": "functional"}}}
{"smiles": "Cn1c[n+](C)c2c1C(=O)c1ccccc1C2=O.O=S(=O)([O-])C(F)(F)F", "values": [{"measurement": "IC50", "setting": "A549 [1]", "result": 70, "unit": "nM"}, {"measurement": "IC50", "setting": "L929", "result": 2000, "unit": "nM"}, {"measurement": "Ratio IC50", "setting": "[2]", "result": 28.6}]}
{"smiles": "Cn1c[n+](C)c2c1C(=O)c1cc3ccccc3cc1C2=O.[Br-]", "values": [{"measurement": "IC50", "setting": "143B", "result": 410, "unit": "nM"}, {"measurement": "IC50", "setting": "TE-1", "result": 30, "unit": "nM"}, {"measurement": "Activity", "setting": "A549 [3]", "result": 89.2, "unit": "%"}, {"measurement": "IC50", "setting": "MCF7", "result": 60, "unit": "nM"}, {"measurement": "Activity", "setting": "A549 [4]", "result": 13.9, "unit": "%"}, {"measurement": "IC50 at 48 h", "setting": "[5]", "result": 14200, "unit": "nM"}, {"measurement": "IC50", "setting": "5637", "result": 110, "unit": "nM"}, {"measurement": "IC50", "setting": "ASPC1", "result": 110, "unit": "nM"}, {"measurement": "IC50", "setting": "BXPC-3", "result": 110, "unit": "nM"}, {"measurement": "Activity", "setting": "A549 [6]", "result": 2.43, "unit": "%"}, {"measurement": "IC50", "setting": "HeLa", "result": 1860, "unit": "nM"}, {"measurement": "IC50 at 48 h", "setting": "[7]", "result": 13600, "unit": "nM"}, {"measurement": "IC50", "setting": "A549 [8]", "result": 10, "unit": "nM"}, {"measurement": "Activity", "setting": "A549 [9]", "result": 11.5, "unit": "%"}, {"measurement": "Activity", "setting": "A549 [10]", "result": 79.7, "unit": "%"}, {"measurement": "IC50", "setting": "PANC-1", "result": 90, "unit": "nM"}, {"measurement": "IC50", "setting": "HepG2", "result": 360, "unit": "nM"}, {"measurement": "IC50 at 48 h", "setting": "[11]", "result": 10500, "unit": "nM"}, {"measurement": "IC50 at 48 h", "setting": "[12]", "result": 3980, "unit": "nM"}, {"measurement": "Activity", "setting": "A549 [13]", "result": 7.92, "unit": "%"}, {"measurement": "Activity", "setting": "A549 [14]", "result": 58.5, "unit": "%"}, {"measurement": "Activity", "setting": "A549 [15]", "result": 0.22, "unit": "%"}, {"measurement": "Activity", "setting": "A549 [16]", "result": 1.6, "unit": "%"}, {"measurement": "Activity", "setting": "A549 [17]", "result": 25.3, "unit": "%"}, {"measurement": "IC50", "setting": "NCI-H460", "result": 160, "unit": "nM"}, {"measurement": "IC50", "setting": "NCI-H1299", "result": 540, "unit": "nM"}, {"measurement": "Activity", "setting": "A549 [18]", "result": 8.24, "unit": "%"}, {"measurement": "Activity", "setting": "A549 [19]", "result": 0.55, "unit": "%"}]}
{"smiles": "Cc1ccc(S(=O)(=O)[O-])cc1.Cn1c[n+](C)c2c1C(=O)c1ccccc1C2=O", "values": [{"measurement": "IC50", "setting": "A549 [1]", "result": 280, "unit": "nM"}, {"measurement": "IC50", "setting": "L929", "result": 540, "unit": "nM"}, {"measurement": "Ratio IC50", "setting": "[2]", "result": 1.9}]}
{"smiles": "CS(=O)(=O)[O-].Cn1c[n+](C)c2c1C(=O)c1ccccc1C2=O", "values": [{"measurement": "IC50", "setting": "A549 [1]", "result": 400, "unit": "nM"}, {"measurement": "IC50", "setting": "L929", "result": 700, "unit": "nM"}, {"measurement": "Ratio IC50", "setting": "[2]", "result": 1.8}]}
{"smiles": "Cn1c2c([n+](C)c1C1CC1)C(=O)c1ccccc1C2=O", "values": [{"measurement": "IC50 at 48 h", "setting": "[7]", "result": 6200, "unit": "nM"}, {"measurement": "IC50", "setting": "A549 [8]", "result": 80, "unit": "nM"}, {"measurement": "selectivity ratio", "setting": "[2]", "result": 78}]}
{"smiles": "CC(C)n1c[n+](C(C)C)c2c1C(=O)c1ccccc1C2=O", "values": [{"measurement": "IC50 at 48 h", "setting": "[7]", "result": 18600, "unit": "nM"}, {"measurement": "IC50", "setting": "A549 [8]", "result": 630, "unit": "nM"}, {"measurement": "selectivity ratio", "setting": "[2]", "result": 29.5}]}
{"smiles": "Cn1c2c([n+](C)c1-c1ccccc1F)C(=O)c1cc3ccccc3cc1C2=O", "values": [{"measurement": "IC50 at 48 h", "setting": "[7]", "result": 10700, "unit": "nM"}, {"measurement": "IC50", "setting": "A549 [8]", "result": 850, "unit": "nM"}, {"measurement": "selectivity ratio", "setting": "[2]", "result": 13}]}
{"smiles": "Cn1c2c([n+](C)c1-c1ccco1)C(=O)c1ccccc1C2=O", "values": [{"measurement": "IC50 at 48 h", "setting": "[7]", "result": 7000, "unit": "nM"}, {"measurement": "IC50", "setting": "A549 [8]", "result": 680, "unit": "nM"}, {"measurement": "selectivity ratio", "setting": "[2]", "result": 10}]}
